Source: US20110034414A1, “FLUOROALKYLOXY ALKANES, PROCESS FOR PRODUCTION AND USES THEREOF” (AL.CHI.MI.A. S.R.L., priority 2008, published 2011)

Legend:
[1] = Clarity (solubility) of mixtures of fluoroalkyloxy alkane with silicone oil 5,000 cS; format: physicochemical; design: key: ++: the mixture is clear after stirring at room temperature; +: the mixture is opalescent after stirring at room temperature, it becomes clear after heating at 37° C
Procedure: Various mixtures comprising a fluoroalkyloxy alkane obtained according to Examples 1, 3 and 4 and a silicone oil having a viscosity of 5,000 cS (at 20° C.) were prepared.
Table 4 contains the amounts of fluoroalkyloxy alkane in the various mixtures (expressed as weight % on the total weight of the mixture), and the result in terms of clarity of the solution at different temperatures.

[2] = Clarity (solubility) of mixtures of fluoroalkyloxy alkane with silicone oil 1,000 cS; format: physicochemical; design: key: ++: the mixture is clear after stirring at room temperature; +: the mixture is opalescent after stirring at room temperature, it becomes clear after heating at 37° C
Procedure: Various mixtures comprising a fluoroalkyloxy alkane obtained according to Examples 1, 3 and 4 and a silicone oil having a viscosity of 1,000 cS (at 20° C.) were prepared.
Table 3 contains the amounts of fluoroalkyloxy alkane in the various mixtures (expressed as weight % on the total weight of the mixture), and the result in terms of clarity of the solution at different temperatures.

[3] = 33% by weight fluoroalkyloxy alkane in silicone oil 5,000 cS (at 20° C.)
[4] = 43% by weight fluoroalkyloxy alkane in silicone oil 5,000 cS (at 20° C.)
[5] = 50% by weight fluoroalkyloxy alkane in silicone oil 5,000 cS (at 20° C.)
[6] = 60% by weight fluoroalkyloxy alkane in silicone oil 5,000 cS (at 20° C.)
[7] = 90% by weight fluoroalkyloxy alkane in silicone oil 5,000 cS (at 20° C.)
[8] = 33% by weight fluoroalkyloxy alkane in silicone oil 1,000 cS (at 20° C.)
[9] = 43% by weight fluoroalkyloxy alkane in silicone oil 1,000 cS (at 20° C.)
[10] = 50% by weight fluoroalkyloxy alkane in silicone oil 1,000 cS (at 20° C.)
[11] = 60% by weight fluoroalkyloxy alkane in silicone oil 1,000 cS (at 20° C.)
[12] = 90% by weight fluoroalkyloxy alkane in silicone oil 1,000 cS (at 20° C.)

clarity of the solution [1, 3] | clarity of the solution [1, 4] | clarity of the solution [1, 5] | clarity of the solution [1, 6] | clarity of the solution [1, 7] | clarity of the solution [2, 8] | clarity of the solution [2, 9] | clarity of the solution [2, 10] | clarity of the solution [2, 11] | clarity of the solution [2, 12] | clarity of the solution ([1]; 20% by weight fluoroalkyloxy alkane in silicone oil 5,000 cS (at 20° C.)) | clarity of the solution ([2]; 20% by weight fluoroalkyloxy alkane in silicone oil 1,000 cS (at 20° C.)) | SMILES
++ | ++ | ++ | ++ | ++ | ++ | ++ | ++ | ++ | ++ |  |  | CCCOCCC(F)(F)C(F)(F)C(F)(F)C(F)(F)F [CF3(CF2)3CH2CH2O(CH2)2CH3]
++ | ++ | ++ | ++ | ++ | ++ | ++ | ++ | ++ | ++ |  |  | CCCCCOCCC(F)(F)C(F)(F)C(F)(F)C(F)(F)F [CF3(CF2)3CH2CH2O(CH2)4CH3]
++ | + | + |  |  | ++ | + | + |  |  | ++ | ++ | CCCCCOCCC(F)(F)C(F)(F)C(F)(F)C(F)(F)C(F)(F)C(F)(F)F [CF3(CF2)5CH2CH2O(CH2)4CH3]
